36 compounds from US9296711B2, “Substituted isoxazole amide compounds as inhibitors of stearoyl-CoA desaturase 1 (SCD1)” (Hoffman-La Roche Inc., priority 2012, dated 2016) can be followed below.

The test addresses T1, SCD1 (Mus musculus, UniProt P13516).
T1 construct: Mouse liver microsomes, prepared from mice fed a high-carbohydrate diet, were a source of the SCD; from tissue; host or cells: mouse liver microsomes (mice fed a high-carbohydrate diet)
T1 sequence (P13516 1-355): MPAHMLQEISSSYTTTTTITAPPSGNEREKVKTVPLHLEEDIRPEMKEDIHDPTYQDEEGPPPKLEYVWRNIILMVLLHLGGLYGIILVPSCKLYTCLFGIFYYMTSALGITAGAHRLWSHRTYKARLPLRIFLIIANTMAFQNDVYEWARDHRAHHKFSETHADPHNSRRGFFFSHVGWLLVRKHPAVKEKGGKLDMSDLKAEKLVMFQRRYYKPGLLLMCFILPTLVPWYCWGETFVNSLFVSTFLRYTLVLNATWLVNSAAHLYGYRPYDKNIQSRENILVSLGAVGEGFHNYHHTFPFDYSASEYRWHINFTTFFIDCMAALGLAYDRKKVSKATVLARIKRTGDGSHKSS
Put plainly: SCD assay: release of tritiated water from desaturation of 9,10-3H-stearoyl CoA by mouse liver microsomes. In kind it is biochemical. The conditions noted are these: mouse liver microsomes as SCD source; 300 nM (9,10)3H-stearoyl CoA; 25 minutes at room temperature; read-out: IC50 (in vitro inhibition of SCD1). The text has this:
Stearoyl CoA desaturase activity was monitored by a modification of the acyl carrier protein assay described by B. R. Talamo and K. Bloch in Anal. Biochem. 1968, 29, 300-304. The SCD assay monitors the release of tritiated water from the desaturation of 9,10-^3H-stearoyl CoA.
Mouse liver microsomes, prepared from mice fed a high-carbohydrate diet, were a source of the SCD and cyt b5 and cyt b5 reductase, necessary accessory proteins for the coupled reaction. Reaction mixtures for compound titrations contained 50 mM Tris HCl pH 7.5, 100 mM NaCl, 0.165 mg/ml BSA, 2.4% DMSO, 1 mM NADH, 0.03% T-20, and 300 nM (9,10)^3H-stearoyl CoA (Perkin-Elmer). Reactions were initiated upon the addition of 4 ug/ml SCD microsomes. Incubations were terminated after 25 minutes at room temperature with cold 6% TCA. After standing 10 minutes at 4° C., samples were centrifuged 15 minutes at 4000 rpm to pellet precipitated protein. Supernatants were added to microtiter plates containing suspensions of activated charcoal (Darco G-60, Fisher Scientific) and mixed by inversion. Plates were then centrifuged to separate ^3H—H2O product from charcoal-bound reactants. Supernatants were quantitated in a Perkin Elmer Topcount 384 after solubilization in ScintiSafe Plus 50% (Fisher Scientific).
Inhibition (%) of SCD activity by compounds was calculated according to the following formula: % Inhibition=100*[1−(CPMsample−CPMblank)/(CPMtotal−CPMblank)]
A word on the IC50: it is the concentration at which inhibition is half-maximal. With `NC(=O)c1cc(-c2ccc(COc3ccccc3OC(F)(F)F)cc2)no1` [Example 33, 3-[4-(2-Trifluoromethoxy-phenoxymethyl)-phenyl]-isoxazole-5-carboxylic acid amide], the IC50 amounted to 470 nM.
For `NC(=O)c1cc(-c2ccc(COc3ccccc3F)cc2)no1` [Example 39, 3-[4-(2-Fluoro-phenoxymethyl)-phenyl]-isoxazole-5-carboxylic acid amide], the IC50 was 510 nM.
In the case of `NC(=O)c1cc(-c2ccc(CN3Cc4ccccc4C3)cc2)no1` [Example 46, 3-[4-(1,3-Dihydro-isoindol-2-ylmethyl)-phenyl]-isoxazole-5-carboxylic acid amide] it was 2800 nM.
Consider `NC(=O)c1cc(-c2ccc(Cn3ccc4ccccc43)cc2)no1` [Example 47, 3-(4-Indol-1-ylmethyl-phenyl)-isoxazole-5-carboxylic acid amide], for which the IC50 came to 17 nM.
In the case of `NC(=O)c1cc(-c2ccc(OCc3ccccc3OC(F)(F)F)cc2)no1` [Example 10, 3-[4-(2-Trifluoromethoxy-benzyloxy)-phenyl]-isoxazole-5-carboxylic acid amide] it was 210 nM.
Regarding `NC(=O)c1cc(-c2ccc(Cn3ncc4ccccc43)cc2)no1` [Example 50, 3-(4-Indazol-1-ylmethyl-phenyl)-isoxazole-5-carboxylic acid amide], the IC50 was 74 nM.
In the case of `Cc1ccc(Cl)cc1OCc1ccc(-c2cc(C(N)=O)on2)cc1` [Example 40, 3-[4-(5-Chloro-2-methyl-phenoxymethyl)-phenyl]-isoxazole-5-carboxylic acid amide] it was 140 nM; in that of `CC1Cc2ccccc2N1Cc1ccc(-c2cc(C(N)=O)on2)cc1` (stereo not drawn) [Example 53, 3-[4-(2-Methyl-2,3-dihydro-indol-1-ylmethyl)-phenyl]-isoxazole-5-carboxylic acid amide], 100 nM; in that of `NC(=O)c1cc(-c2ccc(OCc3ccccc3Br)cc2)no1` [Example 20, 3-[4-(2-Bromo-benzyloxy)-phenyl]-isoxazole-5-carboxylic acid amide], 170 nM.
Take `COc1cccc(OCc2ccc(-c3cc(C(N)=O)on3)cc2)c1` [Example 29, 3-[4-(3-Methoxy-phenoxymethyl)-phenyl]-isoxazole-5-carboxylic acid amide]: the IC50 amounted to 340 nM.
On to `Cc1ccc(COc2ccc(-c3cc(C(N)=O)on3)cc2)cc1C` [Example 4, 3-[4-(3,4-Dimethyl-benzyloxy)-phenyl]-isoxazole-5-carboxylic acid amide], for which the IC50 turned out to be 2700 nM.
For the compound `Cc1cccc(C)c1OCc1ccc(-c2cc(C(N)=O)on2)cc1` [Example 31, 3-[4-(2,6-Dimethyl-phenoxymethyl)-phenyl]-isoxazole-5-carboxylic acid amide], the IC50 is 1900 nM.
Then `COc1ccc(OCc2ccc(-c3cc(C(N)=O)on3)cc2)cc1` [Example 30, 3-[4-(4-Methoxy-phenoxymethyl)-phenyl]-isoxazole-5-carboxylic acid amide], with 3300 nM; and `NC(=O)c1cc(-c2ccc(OCc3ccccc3Cl)cn2)no1` [Example 14, 3-[5-(2-Chloro-benzyloxy)-pyridin-2-yl]-isoxazole-5-carboxylic acid amide], with 1400 nM; and `NC(=O)c1cc(-c2ccc(OCc3cccc(Cl)c3)cc2)no1` [Example 18, 3-[4-(3-Chloro-benzyloxy)-phenyl]-isoxazole-5-carboxylic acid amide], with 1500 nM.
Then `NC(=O)c1cc(-c2ccc(OCc3ccc(F)c(F)c3)cc2)no1` [Example 7, 3-[4-(3,4-Difluoro-benzyloxy)-phenyl]-isoxazole-5-carboxylic acid amide], with 2300 nM; and `CS(=O)(=O)c1ccccc1COc1ccc(-c2cc(C(N)=O)on2)cc1` [Example 22, 3-[4-(2-Methanesulfonyl-benzyloxy)-phenyl]-isoxazole-5-carboxylic acid amide], with 1500 nM; and `Cc1cccnc1OCc1ccc(-c2cc(C(N)=O)on2)cc1` [Example 38, 3-[4-(3-Methyl-pyridin-2-yloxymethyl)-phenyl]-isoxazole-5-carboxylic acid amide], with 350 nM.
In the case of `N#Cc1ccccc1COc1ccc(-c2cc(C(N)=O)on2)cc1` [Example 5, 3-[4-(2-Cyano-benzyloxy)-phenyl]-isoxazole-5-carboxylic acid amide] it was 970 nM.
As to `NC(=O)c1cc(-c2ccc(OCc3ccccc3C(F)(F)F)c(Cl)c2)no1` [Example 55, 3-[3-Chloro-4-(2-trifluoromethyl-benzyloxy)-phenyl]-isoxazole-5-carboxylic acid amide], the IC50 turned out to be 2700 nM.
Regarding `NC(=O)c1cc(-c2ccc(OCc3ccccc3[S+]([O-])C(F)(F)F)cc2)no1` (stereo not drawn) [Example 2, 3-[4-(2-Trifluoromethanesulfinyl-benzyloxy)-phenyl]-isoxazole-5-carboxylic acid amide], the IC50 amounted to 580 nM.
Turning to `NC(=O)c1cc(-c2ccc(OCc3ccccc3C(F)(F)F)cc2)no1` [Example 21, 3-[4-(2-Trifluoromethyl-benzyloxy)-phenyl]-isoxazole-5-carboxylic acid amide], the IC50 worked out at 180 nM.
In the case of `CC(C)(C)c1ccccc1OCc1ccc(-c2cc(C(N)=O)on2)cc1` [Example 35, 3-[4-(2-tert-Butyl-phenoxymethyl)-phenyl]-isoxazole-5-carboxylic acid amide] it was 650 nM; in that of `Cc1c(Cl)cccc1OCc1ccc(-c2cc(C(N)=O)on2)cc1` [Example 41, 3-[4-(3-Chloro-2-methyl-phenoxymethyl)-phenyl]-isoxazole-5-carboxylic acid amide], 390 nM; in that of `NC(=O)c1cc(-c2ccc(OCc3ccccc3F)cc2)no1` [Example 8, 3-[4-(2-Fluoro-benzyloxy)-phenyl]-isoxazole-5-carboxylic acid amide], 560 nM.
Then `Cc1cccc(OCc2ccc(-c3cc(C(N)=O)on3)cc2)c1` [Example 27, 3-(4-m-Tolyloxymethyl-phenyl)-isoxazole-5-carboxylic acid amide], with 560 nM.
As for `NC(=O)c1cc(-c2ccc(OCc3c(Cl)cccc3Cl)cc2)no1` [Example 6, 3-[4-(2,6-Dichloro-benzyloxy)-phenyl]-isoxazole-5-carboxylic acid amide], the IC50 turned out to be 2600 nM.
For `NC(=O)c1cc(-c2ccc(OCc3cccnc3Cl)cc2)no1` [Example 15, 3-[4-(2-Chloro-pyridin-3-ylmethoxy)-phenyl]-isoxazole-5-carboxylic acid amide], the IC50 came out at 2400 nM.
`NC(=O)c1cc(-c2ccc(COc3ccccc3C(F)(F)F)cc2)no1` [Example 36, 3-[4-(2-Trifluoromethyl-phenoxymethyl)-phenyl]-isoxazole-5-carboxylic acid amide]: the IC50 was 260 nM.
In the case of `NC(=O)c1cc(-c2ccc(OCc3cccc(C(F)(F)F)c3)cc2)no1` [Example 17, 3-[4-(3-Trifluoromethyl-benzyloxy)-phenyl]-isoxazole-5-carboxylic acid amide] it was 1400 nM; in that of `NC(=O)c1cc(-c2ccc(CN3CCc4ccccc43)cc2)no1` [Example 45, 3-[4-(2,3-Dihydro-indol-1-ylmethyl)-phenyl]-isoxazole-5-carboxylic acid amide], 31 nM.
Consider `NC(=O)c1cc(-c2ccc(Cn3nnc4ccccc43)cc2)no1` [Example 48, 3-(4-Benzotriazol-1-ylmethyl-phenyl)-isoxazole-5-carboxylic acid amide], for which the IC50 was determined as 230 nM.
In the case of `CCc1ccccc1OCc1ccc(-c2cc(C(N)=O)on2)cc1` [Example 34, 3-[4-(2-Ethyl-phenoxymethyl)-phenyl]-isoxazole-5-carboxylic acid amide] it was 210 nM; in that of `NC(=O)c1cc(-c2ccc(CN3CCCc4ccccc43)cc2)no1` [Example 52, 3-[4-(3,4-Dihydro-2H-quinolin-1-ylmethyl)-phenyl]-isoxazole-5-carboxylic acid amide], 24 nM.
For `CC(C)c1ccccc1OCc1ccc(-c2cc(C(N)=O)on2)cc1` [Example 32, 3-[4-(2-Isopropyl-phenoxymethyl)-phenyl]-isoxazole-5-carboxylic acid amide], the IC50 worked out at 380 nM.
Consider `COc1ccccc1COc1ccc(-c2cc(C(N)=O)on2)cc1` [Example 3, 3-[4-(2-Methoxy-benzyloxy)-phenyl]-isoxazole-5-carboxylic acid amide], for which the IC50 worked out at 850 nM.
